Results published in patent US7718382B2, “Method for identifying compounds for treatment of pain” (Universite Laval, priority 2004, dated 2010).

Test system: pain hypersensitivity (allodynia) after chronic constriction injury to the sciatic nerve
Experiment: Von Frey 50% withdrawal threshold in rats with chronic constriction injury to the sciatic nerve (neuropathic pain)
Assay type: in vivo, Sprague-Dawley rats
Settings: allodynic rats, 500 ng single intrathecal injection
Description: Eleven adult, Sprague-Dawley rats received an experimental chronic constriction injury to the sciatic nerve (Mosconi & Kruger, 1996, Pain 64:37-57). Pain hypersensitivity, indicative of neuropathic pain, increased progressively over a two week interval and was monitored using the Von Frey technique (Chaplan et al., 1994, J. Neurosci. Methods 53:55-63). Following the development of allodynia (characterized by a 50% withdrawal threshold (WD50) of ≦2.0 g), rats were administered 500 ng tricyclodecan-9-yl-xanthogenate by intrathecal catheter, the tricyclodecan-9-yl-xanthogenate was prepared in a solution of saline (0.9% NaCl) with 10% v/v dimethyl sulfoxide. Tricyclodecan-9-yl-xanthogenate is available from EMD Biosciences (a division of Calbiochem). A solution of saline (0.9% NaCl) with 10% v/v dimethyl sulfoxide was injected into control rats as a vehicle. The volume of the vehicle administered was the same as for the PLCγ inhibitor solution.
Seven allodynic rats received single intrathecal injections of a vehicle, whereas 4 rats received single injections of tricyclodecan-9-yl-xanthogenate; the mean WD50 for both groups was 1.9±0.2 g prior to injections. […] This significant reduction of pain hypersensitivity persisted for greater than 6 hours.

Compound: S=C(S)OC1CC2CC1C1CCCC21 (centres unmarked) [tricyclodecan-9-yl-xanthogenate]
- persistence of significant reduction of pain hypersensitivity: greater than 6 hours
- 50% withdrawal threshold (WD50) (4 hours post-injection, pre-injection WD50 1.9±0.2 g, vehicle 4.1±0.7 g, p<0.05): 8.8 ± 2.1 g
